According to paper PMC9469100, “Turning Nonselective Inhibitors of Type I Protein Arginine Methyltransferases into Potent and Selective Inhibitors of Protein Arginine Methyltransferase 4 through a Deconstruction–Reconstruction and Fragment-Growing Approach” (Journal of Medicinal Chemistry, 2022):
Read-outs that look alike come from different tables or passages of the source.

How the values were obtained:
PRMT5/MEP50 complex = PRMT5/MEP50 complex (Homo sapiens, UniProt O14744); assay: Radioisotope-based filter-binding (HotSpot) assay, PRMT5
Protocol: (§1) Then, ^3H-SAM (final concentration 1 μM) was delivered into the reaction mixture to initiate the reaction. After incubation for 60 min at 30 °C, the reaction mixture was delivered to filter paper for detection (as assessed by scintillation). Data were analyzed using Excel and GraphPad Prism 6.0 software (GraphPad Software Inc., San Diego, CA) for IC50 curve fits using sigmoidal dose vs response-variable slope (four parameters) equations.

ΔN(1–60)-PRMT8 = ΔN(1–60)-PRMT8 (Homo sapiens, UniProt Q9NR22); assay: Radioisotope-based filter-binding (HotSpot) assay, PRMT8
Protocol: as §1

PRMT3 = PRMT3 (Homo sapiens, UniProt O60678); assay: Radioisotope-based filter-binding (HotSpot) assay, PRMT3; settings: radioisotope-based filter assay
Protocol: as §1

PRMT6 = PRMT6 (Homo sapiens, UniProt Q96LA8); assay: Radioisotope-based filter-binding (HotSpot) assay, PRMT6; settings: radioisotope-based filter assay
Protocol: as §1

PRMT1 = PRMT1 (Homo sapiens, UniProt Q99873); assay: Radioisotope-based filter-binding (HotSpot) assay, PRMT1; settings: radioisotope-based filter assay
Protocol: as §1

PRMT7 = biological target: T1, PRMT7 (Homo sapiens, UniProt Q9NVM4); assay: Radioisotope-based filter-binding (HotSpot) assay, PRMT7; settings: read-out: IC50 (μM) PRMT7; radioisotope-based filter assay; 5 μM GST-GAR; 1 μM 3H-SAM
T1 sequence (Q9NVM4 2-692): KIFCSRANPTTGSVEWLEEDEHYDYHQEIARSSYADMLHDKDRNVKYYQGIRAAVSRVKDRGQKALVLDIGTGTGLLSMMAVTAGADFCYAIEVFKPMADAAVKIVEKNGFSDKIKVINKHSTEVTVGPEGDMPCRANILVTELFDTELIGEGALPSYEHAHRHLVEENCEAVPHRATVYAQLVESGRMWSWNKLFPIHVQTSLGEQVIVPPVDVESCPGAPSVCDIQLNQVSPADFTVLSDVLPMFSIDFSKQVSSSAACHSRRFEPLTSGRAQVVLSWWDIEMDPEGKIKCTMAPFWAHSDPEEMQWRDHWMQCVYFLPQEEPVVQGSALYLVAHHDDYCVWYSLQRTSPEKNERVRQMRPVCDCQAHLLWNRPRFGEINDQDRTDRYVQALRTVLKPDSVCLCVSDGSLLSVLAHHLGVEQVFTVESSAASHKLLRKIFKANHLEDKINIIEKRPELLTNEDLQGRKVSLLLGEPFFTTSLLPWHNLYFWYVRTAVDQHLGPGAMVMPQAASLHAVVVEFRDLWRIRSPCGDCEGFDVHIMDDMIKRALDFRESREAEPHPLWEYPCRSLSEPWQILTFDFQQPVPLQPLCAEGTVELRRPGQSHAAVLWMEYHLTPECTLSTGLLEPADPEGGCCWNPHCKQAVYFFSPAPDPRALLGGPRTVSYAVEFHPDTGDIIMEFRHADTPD
Protocol: as §1

PRMT4 = biological target: T2, PRMT4 (Homo sapiens, UniProt Q86X55); assay: Radioisotope-based filter-binding (HotSpot) assay, PRMT4; settings: for LE: ligand efficiency for PRMT4 calculated from IC50 as a surrogate for KD; for selectivity index for PRMT4 vs other PRMTs: PRMT1: ratio IC50 PRMT1 / IC50 PRMT4, rounded to nearest integer; for selectivity index for PRMT4 vs other PRMTs: PRMT3: ratio IC50 PRMT3 / IC50 PRMT4; for selectivity index for PRMT4 vs other PRMTs: PRMT5: ratio IC50 PRMT5 / IC50 PRMT4; for selectivity index for PRMT4 vs other PRMTs: PRMT6: ratio IC50 PRMT6 / IC50 PRMT4; for selectivity index for PRMT4 vs other PRMTs: PRMT7: ratio IC50 PRMT7 / IC50 PRMT4; for selectivity index for PRMT4 vs other PRMTs: PRMT8: ratio IC50 PRMT8 / IC50 PRMT4; for IC50: radioisotope-based filter assay; for SI PRMT1 (Figure 5 heatmap): selectivity index for PRMT4 over PRMT1; for SI PRMT3 (Figure 5 heatmap): selectivity index for PRMT4 over PRMT3; for SI PRMT5 (Figure 5 heatmap): selectivity index for PRMT4 over PRMT5; for SI PRMT6 (Figure 5 heatmap): selectivity index for PRMT4 over PRMT6; for SI PRMT7 (Figure 5 heatmap): selectivity index for PRMT4 over PRMT7; for SI PRMT8 (Figure 5 heatmap): selectivity index for PRMT4 over PRMT8
T2 sequence (Q86X55 2-608): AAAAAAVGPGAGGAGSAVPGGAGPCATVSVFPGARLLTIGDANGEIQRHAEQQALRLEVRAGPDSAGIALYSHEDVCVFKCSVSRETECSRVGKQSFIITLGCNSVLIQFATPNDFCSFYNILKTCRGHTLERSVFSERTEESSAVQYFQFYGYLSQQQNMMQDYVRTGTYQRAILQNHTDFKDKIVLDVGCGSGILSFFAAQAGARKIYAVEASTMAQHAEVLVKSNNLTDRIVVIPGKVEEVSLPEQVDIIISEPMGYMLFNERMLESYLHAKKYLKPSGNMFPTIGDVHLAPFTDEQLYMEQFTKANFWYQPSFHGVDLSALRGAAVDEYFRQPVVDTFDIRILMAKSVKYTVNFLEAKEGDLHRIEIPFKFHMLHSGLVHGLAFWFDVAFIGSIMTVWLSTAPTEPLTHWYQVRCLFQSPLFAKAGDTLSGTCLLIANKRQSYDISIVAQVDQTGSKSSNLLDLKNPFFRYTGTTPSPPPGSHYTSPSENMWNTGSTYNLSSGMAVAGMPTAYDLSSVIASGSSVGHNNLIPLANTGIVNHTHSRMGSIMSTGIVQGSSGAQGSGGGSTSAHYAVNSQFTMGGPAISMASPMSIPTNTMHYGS
Protocol: as §1

[1] = read-out: IC50 (μM) PRMT5, radioisotope-based filter assay, 5 μM histone H2A, 1 μM 3H-SAM
[2] = read-out: IC50 (μM) PRMT8, 5 μM histone H4, 1 μM 3H-SAM
[3] = read-out: IC50 PRMT8 (Figure 5 heatmap)
[4] = read-out: IC50 (μM) PRMT3, 5 μM histone H4, 1 μM 3H-SAM
[5] = read-out: IC50 (μM) PRMT6, 5 μM GST-GAR, 1 μM 3H-SAM
[6] = read-out: IC50 (μM) PRMT1, 5 μM histone H4, 1 μM 3H-SAM
[7] = read-out: IC50 (μM) PRMT4, 5 μM histone H3, 1 μM 3H-SAM
[8] = read-out: IC50 PRMT4 (Figure 5 heatmap)
[9] = read-out: IC50 PRMT3 (Figure 5 heatmap)
[10] = read-out: IC50 PRMT6 (Figure 5 heatmap)
[11] = read-out: IC50 PRMT1 (Figure 5 heatmap)

Chain of PRMT5/MEP50 complex (O14744 2-637): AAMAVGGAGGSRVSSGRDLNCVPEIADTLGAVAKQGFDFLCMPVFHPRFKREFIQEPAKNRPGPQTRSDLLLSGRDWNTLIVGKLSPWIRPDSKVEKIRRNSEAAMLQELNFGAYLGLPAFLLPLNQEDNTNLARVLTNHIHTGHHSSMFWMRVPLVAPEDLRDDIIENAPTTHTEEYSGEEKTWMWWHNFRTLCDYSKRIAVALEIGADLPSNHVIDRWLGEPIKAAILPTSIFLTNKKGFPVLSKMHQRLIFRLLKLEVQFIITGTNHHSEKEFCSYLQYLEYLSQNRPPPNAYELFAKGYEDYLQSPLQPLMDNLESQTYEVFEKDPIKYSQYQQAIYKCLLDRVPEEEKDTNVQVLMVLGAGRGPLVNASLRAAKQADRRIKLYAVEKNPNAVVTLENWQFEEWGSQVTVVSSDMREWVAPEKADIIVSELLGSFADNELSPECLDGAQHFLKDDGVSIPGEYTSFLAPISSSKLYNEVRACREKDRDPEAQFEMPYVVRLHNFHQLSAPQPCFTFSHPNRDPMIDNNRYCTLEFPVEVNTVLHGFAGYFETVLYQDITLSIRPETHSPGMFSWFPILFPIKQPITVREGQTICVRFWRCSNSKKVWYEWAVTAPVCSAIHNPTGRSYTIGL
Chain of PRMT5/MEP50 complex (Q9BQA1 2-342 partner limits assumed): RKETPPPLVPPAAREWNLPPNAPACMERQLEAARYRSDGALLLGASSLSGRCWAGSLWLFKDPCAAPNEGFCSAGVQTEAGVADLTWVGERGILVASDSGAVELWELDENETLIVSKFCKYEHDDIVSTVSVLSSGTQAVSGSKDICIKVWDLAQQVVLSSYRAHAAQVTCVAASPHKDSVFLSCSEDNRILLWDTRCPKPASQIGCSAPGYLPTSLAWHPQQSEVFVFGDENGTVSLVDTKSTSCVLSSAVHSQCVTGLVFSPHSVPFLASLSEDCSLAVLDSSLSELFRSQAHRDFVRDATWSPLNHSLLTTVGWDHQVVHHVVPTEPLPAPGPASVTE
Chain of ΔN(1–60)-PRMT8 (Q9NR22 61-394, stated change not applied): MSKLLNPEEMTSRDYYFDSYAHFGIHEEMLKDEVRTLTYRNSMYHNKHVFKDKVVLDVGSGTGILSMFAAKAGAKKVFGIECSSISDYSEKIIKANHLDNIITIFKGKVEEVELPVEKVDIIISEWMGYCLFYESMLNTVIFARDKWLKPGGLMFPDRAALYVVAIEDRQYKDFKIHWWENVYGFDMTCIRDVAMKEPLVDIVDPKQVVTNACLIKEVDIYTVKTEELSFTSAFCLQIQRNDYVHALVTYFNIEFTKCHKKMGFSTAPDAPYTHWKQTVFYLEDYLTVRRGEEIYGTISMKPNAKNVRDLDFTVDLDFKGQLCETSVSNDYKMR
Chain of PRMT3 (O60678 2-531): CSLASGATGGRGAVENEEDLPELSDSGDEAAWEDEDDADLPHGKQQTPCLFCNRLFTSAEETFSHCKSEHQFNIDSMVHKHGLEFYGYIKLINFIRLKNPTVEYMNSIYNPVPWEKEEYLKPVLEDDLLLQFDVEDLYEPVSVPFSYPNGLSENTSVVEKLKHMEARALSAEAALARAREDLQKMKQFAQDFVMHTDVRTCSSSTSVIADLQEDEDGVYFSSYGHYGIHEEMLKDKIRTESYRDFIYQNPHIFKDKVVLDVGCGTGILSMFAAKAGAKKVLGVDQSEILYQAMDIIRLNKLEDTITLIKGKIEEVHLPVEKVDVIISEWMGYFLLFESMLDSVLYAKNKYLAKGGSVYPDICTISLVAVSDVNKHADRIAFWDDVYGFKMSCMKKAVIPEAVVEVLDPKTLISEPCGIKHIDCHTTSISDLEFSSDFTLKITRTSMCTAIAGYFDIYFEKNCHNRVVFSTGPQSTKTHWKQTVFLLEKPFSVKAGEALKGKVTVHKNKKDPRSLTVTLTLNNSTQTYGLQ
Chain of PRMT6 (Q96LA8 2-375): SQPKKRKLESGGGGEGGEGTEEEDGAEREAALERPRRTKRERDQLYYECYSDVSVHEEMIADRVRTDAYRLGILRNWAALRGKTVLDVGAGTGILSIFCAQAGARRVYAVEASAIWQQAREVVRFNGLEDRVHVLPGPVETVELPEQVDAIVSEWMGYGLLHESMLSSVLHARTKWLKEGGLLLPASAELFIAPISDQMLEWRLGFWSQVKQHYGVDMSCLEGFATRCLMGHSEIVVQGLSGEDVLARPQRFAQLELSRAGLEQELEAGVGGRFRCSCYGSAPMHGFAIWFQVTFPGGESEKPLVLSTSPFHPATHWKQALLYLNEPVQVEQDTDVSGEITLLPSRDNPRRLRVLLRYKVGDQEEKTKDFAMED
Chain of PRMT1 (Q99873 2-371): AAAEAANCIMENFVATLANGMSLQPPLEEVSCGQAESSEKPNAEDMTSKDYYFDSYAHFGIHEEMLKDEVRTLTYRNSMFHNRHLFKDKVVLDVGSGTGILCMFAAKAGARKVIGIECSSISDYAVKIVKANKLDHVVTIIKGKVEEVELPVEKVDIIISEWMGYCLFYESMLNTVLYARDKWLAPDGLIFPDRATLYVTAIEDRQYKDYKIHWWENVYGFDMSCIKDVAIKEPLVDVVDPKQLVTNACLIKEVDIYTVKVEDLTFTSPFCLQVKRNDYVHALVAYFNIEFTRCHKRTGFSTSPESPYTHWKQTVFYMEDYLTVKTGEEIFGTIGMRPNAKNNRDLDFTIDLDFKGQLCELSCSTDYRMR

SMILES	IC50 (PRMT5/MEP50 complex; [1])	IC50 (ΔN(1–60)-PRMT8; [2])	IC50 (ΔN(1–60)-PRMT8; [3])	IC50 (PRMT3; [4])	IC50 (PRMT6; [5])	IC50 (PRMT1; [6])	IC50 (PRMT7)	LE (PRMT4)	selectivity index for PRMT4 vs other PRMTs: PRMT1 (PRMT4)	selectivity index for PRMT4 vs other PRMTs: PRMT3 (PRMT4)	selectivity index for PRMT4 vs other PRMTs: PRMT5 (PRMT4)	selectivity index for PRMT4 vs other PRMTs: PRMT6 (PRMT4)	selectivity index for PRMT4 vs other PRMTs: PRMT7 (PRMT4)	selectivity index for PRMT4 vs other PRMTs: PRMT8 (PRMT4)	IC50 (PRMT4; [7])	IC50 (PRMT4; [8])	SI PRMT1 (Figure 5 heatmap) (PRMT4)	SI PRMT3 (Figure 5 heatmap) (PRMT4)	SI PRMT6 (Figure 5 heatmap) (PRMT4)	SI PRMT7 (Figure 5 heatmap) (PRMT4)	also measured
COC(=O)c1cc(O)c2cc(NC(=O)NCCCCCNC(=N)NC[C@H]3O[C@@H](n4cnc5c(N)ncnc54)[C@H](O)[C@@H]3O)ccc2c1 [12c, Methyl 6-(3-(5-(3-(((2R,3S,4R,5R)-5-(6-Amino-9H-purin-9-yl)-3,4-dihydroxytetrahydrofuran-2-yl)methyl)guanidino)pentyl)ureido)-4-hydroxy-2-naphthoate]	51.4 µM	5.87 µM	5.87 µM	21.3 µM	> 100 µM	8.46 µM	0.22 µM	0.19	20	51	122	>238	0.52	14	0.42 µM	0.421 µM	20 fold	51 fold	> 238 fold	0.52 fold	IC50 (PRMT5/MEP50 complex): 5.14 µM; SI PRMT5 (Figure 5 heatmap) (PRMT4): 122 fold; SI PRMT8 (Figure 5 heatmap) (PRMT4): 14 fold
COC(=O)c1cc(O)c2cc(NC(=O)NCCCCNC(=N)NCCC[C@H]3O[C@@H](n4cnc5c(N)ncnc54)[C@H](O)[C@@H]3O)ccc2c1 [12g, Methyl 6-(3-(4-(3-(3-((2R,3S,4R,5R)-5-(6-Amino-9H-purin-9-yl)-3,4-dihydroxytetrahydrofuran-2-yl)propyl)guanidino)butyl)ureido)-4-hydroxy-2-naphthoate]	0.778 µM	1.41 µM	1.41 µM	13.3 µM	4.34 µM	1.8 µM	4.68 µM	0.24	214	1583	93	517	557	168	0.0084 µM	0.008 µM	214 fold	1,583 fold	517 fold	557 fold	IC50 (PRMT3; [9]): 13.2 µM; IC50 (PRMT6; [10]): 4.34 µM; IC50 (PRMT1; [11]): 1.79 µM; SI PRMT5 (Figure 5 heatmap) (PRMT4): 93 fold; SI PRMT8 (Figure 5 heatmap) (PRMT4): 168 fold
COC(=O)c1cc(O)c2cc(NC(=O)NCCCCNC(=N)NCC[C@H]3O[C@@H](n4cnc5c(N)ncnc54)[C@H](O)[C@@H]3O)ccc2c1 [12f, Methyl 6-(3-(4-(3-(2-((2R,3S,4R,5R)-5-(6-Amino-9H-purin-9-yl)-3,4-dihydroxytetrahydrofuran-2-yl)ethyl)guanidino)butyl)ureido)-4-hydroxy-2-naphthoate]	0.115 µM	6 µM	6 µM	10.5 µM	22.7 µM	4.86 µM	0.226 µM	0.24	501	1082	12	2340	23	619	0.0097 µM	0.01 µM	501 fold	1,082 fold	2,340 fold	23 fold	IC50 (PRMT3; [9]): 10.5 µM; IC50 (PRMT6; [10]): 22.7 µM; IC50 (PRMT1; [11]): 4.86 µM; SI PRMT8 (Figure 5 heatmap) (PRMT4): 619 fold
COC(=O)c1cc(O)c2cc(NC(=O)NCCCCNC(=N)NC/C=C/[C@H]3O[C@@H](n4cnc5c(N)ncnc54)[C@H](O)[C@@H]3O)ccc2c1 [12h, Methyl 6-(3-(4-(3-((E)-3-((2R,3S,4R,5R)-5-(6-Amino-9H-purin-9-yl)-3,4-dihydroxytetrahydrofuran-2-yl)allyl)guanidino)butyl)ureido)-4-hydroxy-2-naphthoate]	1.46 µM	1.95 µM	1.95 µM	4.05 µM	1.75 µM	–	1.68 µM	–	–	–	–	–	–	–	0.0032 µM	–	–	–	–	–	IC50 (PRMT5/MEP50 complex; read-out: IC50 PRMT5 (Figure 5 heatmap), radioisotope-based filter assay): 1.46 µM; IC50 (PRMT3; [9]): 4.04 µM; IC50 (PRMT6; [10]): 1.75 µM; IC50 (PRMT4; IC50 PRMT4 (Figure 5 heatmap)): 0.003 µM; gain in potency over its shorter counterpart 12b (PRMT4; PRMT4): 668 fold
